Data on one molecule can be found in patent publication US5519049A, “Macrolides for the treatment of reversible obstructive airways diseases” (Fisons plc, priority 1989, dated 1996).

The test system of data set [1] is respiratory resistance. The data set is described as follows: Assay for respiratory resistance (inhibitory activity after antigen inhalation challenge, oscillation method). Type of data set: in vivo, inhalation-sensitized male Hartley guinea pigs. Conditions: oral pretreatment every other day, 1 mgml^-1 solution; n = 7; after ovalbumin inhalation challenge; result in words (table title). On the procedure:
(§1) Assay for inhibitory activity against respiratory resistance and antigen-induced bronchial hyper-responsiveness
(§2) Male Hartley guinea pigs (weighing about 300 g) were each placed in a plastic inhalation chamber. Using an ultrasonic nebulizer (NEU10B, Omron Corporation), an aerosolized solution of ovalbumin in physiological saline (10 mgml^-1) was introduced into the chamber for 10 minutes daily for 10 consecutive days to effect sensitization. The animals were used in the experiments 5 days after establishment of sensitization.
During the period from the first day of sensitization to the day before an antigen challenge, the animals were orally treated with a 1 mgml^-1 solution of FR-900506 (in ethanol/olive oil [2:78 v/v]) every other day. Control animals received the ethanol/olive oil vehicle alone in the same manner.
The experimental period was 5 days from day 1 to day 5, and the inhalation challenge with the antigen was given on day 2.
On day 1, and 30 minutes before antigen inhalation challenge on day 2, metopirone (an endogenous cortisol synthesis inhibitor) was intravenously administered (10 mgkg^-1). So that the animals could tolerate the antigen at comparatively high concentrations, chlorpheniramine maleate, an antihistaminic, was intraperitoneally administered (10 mgkg^-1) following the second dose of metopirone. […]
(§3) The results are expressed as mean ±SEM. […]

Data set [2] has as its system antigen-induced bronchial hyper-responsiveness to acetylcholine. The data set can be described thus: Assay for antigen-induced bronchial hyper-responsiveness to acetylcholine (PC200-Ach). Type of data set: in vivo, inhalation-sensitized male Hartley guinea pigs. The conditions noted are these: oral pretreatment every other day, 1 mgml^-1 solution, n = 7, result in words (table title). As for the experimental part:
as §1, §2
During the period from the first day of sensitization to the day before an antigen challenge, the animals were orally treated with a 1 mgml^-1 solution of FR-900506 (in ethanol/olive oil [2:78 v/v]) every other day. Control animals received the ethanol/olive oil vehicle alone in the same manner. […]
Guinea pigs prepared by the method described above were placed in an animal box as described above and the baseline respiratory resistance was measured. […] From the concentration-resistance curve constructed from the acetylcholine concentration and respiratory resistance data, the acetylcholine concentration necessary for increasing the respiratory resistance to twice the baseline value [i.e. PC200 -Ach (μgml^-1)] was calculated.
as §3

The test system of data set [3] is ddy mice. The data set is described as follows: Acute intraperitoneal toxicity study. Type of data set: in vivo. Conditions: 100 mgkg^-1.

With `C=CC[C@@H]1/C=C(\C)C[C@H](C)C[C@H](OC)[C@H]2O[C@@](O)(C(=O)C(=O)N3CCCC[C@H]3C(=O)O[C@H](/C(C)=C/[C@@H]3CC[C@@H](O)[C@H](OC)C3)[C@H](C)[C@@H](O)CC1=O)[C@H](C)C[C@@H]2OC` [FR-900506], the “Inhibitory effect on respiratory resistance” value in data set [1] is “Inhibitory effect”. In addition, the “Inhibitory effect on antigen induced hyper-responsiveness to acetylcholine” value in data set [2] is recorded as “Inhibitory effect”. The “Acute intraperitoneal toxicity, deaths” value in data set [3] is “no deaths”.
